ChEMBL document CHEMBL3112483, “Synthesis and cytotoxic activity of MOM-ether analogs of isosteviol” (Bioorg Med Chem Lett, 2014)

Legend:
[1] = Cytotoxicity against p53 deficient human H1299 cells at 100 uM after 24 hrs by MTT assay; assay type: functional; conditions: NCI-H1299, 24 h, read-out: GI
[2] = Cytotoxicity against human NL20 cells at IC50 after 24 hrs by MTT assay; assay type: cell-based; conditions: nl20, 24 h
NCI-H1299 [3] = test: Induction of apoptosis in human […] cells expressing wild type p53 at IC50 assessed as histone release by ELISA relative to control; assay type: functional
[4] = Cytotoxicity against p53 deficient human H1299 cells after 24 hrs by MTT assay; assay type: functional, cell-based; conditions: NCI-H1299, 24 h
NCI-H1299 [5] = test: Induction of apoptosis in p53 deficient human H1299 cells at IC50 assessed as histone release by ELISA relative to control; assay type: functional
[6] = Induction of apoptosis in human NL20 cells at IC50 assessed as histone release by ELISA relative to control; assay type: cell-based
A549 = test: Cytotoxicity against human A549 cells; assay type: functional, cell-based

| Compound | inhibition of growth at 100 µM [1] [%] | further results |
| --- | --- | --- |
| COCO[C@@H]1C[C@]23CC[C@@H]4[C@](C)(COC(=O)COc5ccccc5)CCC[C@@]4(C)[C@@H]2CC[C@@]1(C)C3 | 70 |  |
| COCO[C@@H]1C[C@]23CC[C@@H]4[C@](C)(COC(=O)NCc5ccc(OC)cc5)CCC[C@@]4(C)[C@@H]2CC[C@@]1(C)C3 | 89 | Activity [2]: 20%; fold change (FC) (NCI-H1299 [3]): 2; IC50 [4]: 21 µM; fold change (FC) (NCI-H1299 [5]): 7; fold change (FC) [6]: 4 |
| COCO[C@@H]1C[C@]23CC[C@@H]4[C@](C)(CO)CCC[C@@]4(C)[C@@H]2CC[C@@]1(C)C3 | 15 |  |
| CCCCCCCC(=O)OC[C@]1(C)CCC[C@]2(C)[C@@H]1CC[C@@]13C[C@@H](O)[C@@](C)(CC[C@H]12)C3 | 48 |  |
| CCCNC(=O)OC[C@]1(C)CCC[C@]2(C)[C@@H]1CC[C@@]13C[C@@H](OCOC)[C@@](C)(CC[C@H]12)C3 | 20 |  |
| COCO[C@@H]1C[C@]23CC[C@@H]4[C@](C)(COC(=O)c5ccccc5)CCC[C@@]4(C)[C@@H]2CC[C@@]1(C)C3 | 8 |  |
| COCO[C@@H]1C[C@]23CC[C@@H]4[C@](C)(COC(=O)C(C)C)CCC[C@@]4(C)[C@@H]2CC[C@@]1(C)C3 | 20 |  |
| COCO[C@@H]1C[C@]23CC[C@@H]4[C@](C)(COC(C)=O)CCC[C@@]4(C)[C@@H]2CC[C@@]1(C)C3 | 13 |  |
| CCCCCCCC(=O)OC[C@]1(C)CCC[C@]2(C)[C@@H]1CC[C@@]13C[C@@H](OCOC)[C@@](C)(CC[C@H]12)C3 | 95 | Activity [2]: 20%; fold change (FC) (NCI-H1299 [3]): 2; IC50 [4]: 14 µM; fold change (FC) (NCI-H1299 [5]): 10; fold change (FC) [6]: 4 |
| COCO[C@@H]1C[C@]23CC[C@@H]4[C@](C)(COC(=O)Nc5ccc(C(C)=O)cc5)CCC[C@@]4(C)[C@@H]2CC[C@@]1(C)C3 | 60 |  |
| COCO[C@@H]1C[C@]23CC[C@@H]4[C@](C)(COC(=O)NCc5ccccc5)CCC[C@@]4(C)[C@@H]2CC[C@@]1(C)C3 | 50 |  |
| C[C@@]12CC[C@@H]3[C@@](CC[C@@H]4[C@](C)(COC(=O)/C=C/C(F)(F)F)CCC[C@]43C)(C[C@H]1O)C2 |  | IC50 (A549): 4.1 µM |
| COCO[C@@H]1C[C@]23CC[C@@H]4[C@](C)(COC(=O)Nc5ccccc5)CCC[C@@]4(C)[C@@H]2CC[C@@]1(C)C3 | 65 |  |
